The record followed here is ChEMBL document CHEMBL5370593, “Discovery and In Vitro Characterization of SPL028: Deuterated N,N-Dimethyltryptamine” (ACS Med Chem Lett, 2023).

Data set [1] in a line: Metabolic stability in human hepatocytes assessed as half life measured per million cells incubated upto 60 mins by LC-MS/MS analysis. It counts as ADME, cell-based, Hepatocyte.
Data set [2] is described as follows: Metabolic stability in human hepatocytes assessed as intrinsic clearance measured per million cells incubated upto 60 mins by LC-MS/MS analysis. Particulars: read-out: CLH. It counts as ADME, cell-based, Hepatocyte.
Data set [3] can be described thus: Plasma protein binding in human assessed as unbound fraction by rapid equilibrium dialysis analysis. It counts as ADME, cell-free.
A short description of data set [4]: Ratio of drug concentration in human blood to plasma at 5 uM incubated for 30 mins by LC-MS/MS analysis. The data set is classed as ADME, cell-free. Particulars: whole blood.

As for `O=C(O)/C=C/C(=O)O.[2H]C([2H])([2H])N(CCc1c[nH]c2ccccc12)C([2H])([2H])[2H]`, the half-life in data set [1] amounted to 1.95 h. Moreover, the hepatocyte CLint in data set [2] was 15.2 µL/min/1e6 cells.
`CNS(=O)(=O)Cc1ccc2[nH]cc(CCN(C)C)c2c1`: in data set [3], the fraction unbound stood at 0.68.
Turning to `CCN(CC)CCCC(C)Nc1ccnc2cc(Cl)ccc12` (configuration not stated) [CHLOROQUINE], the blood plasma ratio at 0.5 h, 5 µM in data set [4] worked out at 4.93.
Regarding `O=C(O)Cc1ccccc1Nc1c(Cl)cccc1Cl` [DICLOFENAC], in data set [4], the blood plasma ratio at 0.5 h, 5 µM is 0.63.
For `O=C(O)/C=C/C(=O)O.[2H]C([2H])([2H])N(C([2H])([2H])[2H])C([2H])([2H])Cc1c[nH]c2ccccc12`, the half-life in data set [1] is 3.45 h. In addition, in data set [2], the hepatocyte CLint was 9.3 µL/min/1e6 cells.
